Test results reported in patent US20190343908A1, “Therapeutic Combination for the Treatment of Cancer” (Nerium Biotechnology Inc., priority 2011, published 2019).

Legend:
[1] = test system: COR-L 105 (non-small cell lung carcinoma); assay: Sulforhodamine B viability assay, COR-L 105; format: cell-based, human; set-up: key to SRB Average: absorbance (optical density) at 570 nm, second wavelength subtracted; conditions: for SRB Average 24 h / SRB Average 48 h / SRB Average 72 h: COR-L 105, Run 3
Source text: (§1) Three different viability assays were chosen to complement each other and yielded results dependent on concentration and cell line: the Methyl Tetrazolium dye assay, the Sulforhodamine B fluorescent dye assay, and the Crystal Violet dye assay.
(§2) The Sulforhodamine B and Crystal Violet assays provide information about protein and were used to complement the Methyl-Tetrazolium dye assay. […] It is used for the quantification of cellular proteins of cultured cells. The assay using Crystal Violet, a dye that binds electrostatically to proteins and stains DNA, provides a reliable, simple assay for measuring viability of cells.
(§3) The Methyl Tetrazolium, Sulforhodamine B, and Crystal Violet assays were used to assess cell viabilities. The incubation times were 24 hours, 48 hours, and 72 hours. The Nerium oleander extract Anvirzel™ (a hot water extract of oleander obtained from Salud Integral, Honduras) was tested in concentrations ranging from 0.01 ng/mL to 10 ng/mL.
(§4) Cells were detached by trypsinization (Trypsin-0.25% EDTA, Invitrogen, 25200-072) during the logarithmic phase of culture growth and plated in 96-well plates (18.000 cells/well) (Corning, Costar 359) in a final volume of 200 μl of medium per well. […] The absorbance was measured after 24 hours, 48 hours, and 72 hours of incubation.
(§5) For the Sulforhodamine B assay, 96-well plates were fixed by 10% trichloroacetic acid (Fluka, 91228) and were incubated at 4° C. for 1 hour. Afterwards, plates were rinsed with water and cells were stained with 0.4% Sulforhodamine B (Sigma, 341738), dissolved in 1% acetic acid (Carlo Ebra, 401422) for 15 minutes at room temperature (RT). The unbound stain was washed twice with 1% acetic acid. Finally, 10 mM Tris Buffer pH 10.5 (Sigma, T6791) was added to dissolve the dye.
(§6) The optical density of each plate was measured on a μQuant spectrophotometer and the data were analyzed with Gen5 software (μQuant Biomolecular Spectrophotometer MQX200 and Gen5™ Microplate Data Collection & Analysis software, BioTek® Instruments. Inc, April 2008). Absorbance was measured at 570 nm for all assays and a second wavelength was measured in order to subtract noise. For the Methyl-Tetrazolium assay this second wavelength was 630 nm and for the Sulforhodamine B and Crystal Violet assays it was 690 nm.

[2] = test system: PC3 (human prostate cancer); assay: Sulforhodamine B viability assay, PC3; format: cell-based
Source text: as §1, §2, §3, §4, §5, §6

SMILES: N.N.[Cl][Pt][Cl] [cisplatin]
- SRB Average 24 h ([1]; 0.1 μg/ml CDDP): 1.731
- SRB Average 48 h ([1]; 0.1 μg/ml CDDP): 2.759
- SRB Average 72 h ([1]; 0.1 μg/ml CDDP): 2.681
- SRB Average 24 h ([1]; 1 μg/ml CDDP): 1.862
- SRB Average 48 h ([1]; 1 μg/ml CDDP): 2.832
- SRB Average 72 h ([1]; 1 μg/ml CDDP): 2.654
- SRB Average 24 h ([1]; 10 μg/ml CDDP): 1.565
- SRB Average 48 h ([1]; 10 μg/ml CDDP): 2.85
- SRB Average 72 h ([1]; 10 μg/ml CDDP): 2.737
- SRB Average 24 h ([1]; 100 μg/ml CDDP): 1.113
- SRB Average 48 h ([1]; 100 μg/ml CDDP): 2.596
- SRB Average 72 h ([1]; 100 μg/ml CDDP): 2.819
- SRB Average ([1]; Run 1, 24 h, 0.1 μg/ml CDDP): 1.526
- SRB Average ([1]; Run 1, 24 h, 1 μg/ml CDDP): 1.714
- SRB Average ([1]; Run 1, 24 h, 10 μg/ml CDDP): 1.386
- SRB Average ([1]; Run 1, 24 h, 100 μg/ml CDDP): 1.523
- SRB Average ([1]; Run 1, 48 h, 0.1 μg/ml CDDP): 1.705
- SRB Average ([1]; Run 1, 48 h, 1 μg/ml CDDP): 1.716
- SRB Average ([1]; Run 1, 48 h, 10 μg/ml CDDP): 1.465
- SRB Average ([1]; Run 1, 48 h, 100 μg/ml CDDP): 1.415
- SRB Average ([1]; Run 1, 72 h, 0.1 μg/ml CDDP): 1.491
- SRB Average ([1]; Run 1, 72 h, 1 μg/ml CDDP): 1.356
- SRB Average ([1]; Run 1, 72 h, 10 μg/ml CDDP): 1.544
- SRB Average ([1]; Run 1, 72 h, 100 μg/ml CDDP): 1.456
- SRB Average ([1]; Run 2, 24 h, 0.1 μg/ml CDDP): 1.731
- SRB Average ([1]; Run 2, 24 h, 1 μg/ml CDDP): 1.862
- SRB Average ([1]; Run 2, 24 h, 10 μg/ml CDDP): 1.565
- SRB Average ([1]; Run 2, 24 h, 100 μg/ml CDDP): 1.113
- SRB Average ([1]; Run 2, 48 h, 0.1 μg/ml CDDP): 2.759
- SRB Average ([1]; Run 2, 48 h, 1 μg/ml CDDP): 2.832
- SRB Average ([1]; Run 2, 48 h, 10 μg/ml CDDP): 2.85
- SRB Average ([1]; Run 2, 48 h, 100 μg/ml CDDP): 2.596
- SRB Average ([1]; Run 2, 72 h, 0.1 μg/ml CDDP): 2.681
- SRB Average ([1]; Run 2, 72 h, 1 μg/ml CDDP): 2.654
- SRB Average ([1]; Run 2, 72 h, 10 μg/ml CDDP): 2.737
- SRB Average ([1]; Run 2, 72 h, 100 μg/ml CDDP): 2.819
- SRB Average ([2]; PC3 Run 1, 24 h, 0.1 μg/ml CDDP): 2.058
- SRB Average ([2]; PC3 Run 1, 24 h, 1 μg/ml CDDP): 1.352
- SRB Average ([2]; PC3 Run 1, 24 h, 10 μg/ml CDDP): 1.604
- SRB Average ([2]; PC3 Run 1, 24 h, 100 μg/ml CDDP): 1.605
- SRB Average ([2]; PC3 Run 1, 48 h, 0.1 μg/ml CDDP): 2.343
- SRB Average ([2]; PC3 Run 1, 48 h, 1 μg/ml CDDP): 1.677
- SRB Average ([2]; PC3 Run 1, 48 h, 10 μg/ml CDDP): 2.159
- SRB Average ([2]; PC3 Run 1, 48 h, 100 μg/ml CDDP): 1.851
- SRB Average ([2]; PC3 Run 1, 72 h, 0.1 μg/ml CDDP): 2.256
- SRB Average ([2]; PC3 Run 1, 72 h, 1 μg/ml CDDP): 2.227
- SRB Average ([2]; PC3 Run 1, 72 h, 10 μg/ml CDDP): 2.554
- SRB Average ([2]; PC3 Run 1, 72 h, 100 μg/ml CDDP): 1.543
- SRB Average ([2]; PC3 Run 2, 24 h, 0.1 μg/ml CDDP): 1.578
- SRB Average ([2]; PC3 Run 2, 24 h, 1 μg/ml CDDP): 1.469
- SRB Average ([2]; PC3 Run 2, 24 h, 10 μg/ml CDDP): 1.403
- SRB Average ([2]; PC3 Run 2, 24 h, 100 μg/ml CDDP): 1.5
- SRB Average ([2]; PC3 Run 2, 48 h, 0.1 μg/ml CDDP): 2.279
- SRB Average ([2]; PC3 Run 2, 48 h, 1 μg/ml CDDP): 2.066
- SRB Average ([2]; PC3 Run 2, 48 h, 10 μg/ml CDDP): 2.144
- SRB Average ([2]; PC3 Run 2, 48 h, 100 μg/ml CDDP): 1.77
- SRB Average ([2]; PC3 Run 2, 72 h, 0.1 μg/ml CDDP): 2.069
- SRB Average ([2]; PC3 Run 2, 72 h, 1 μg/ml CDDP): 1.64
- SRB Average ([2]; PC3 Run 2, 72 h, 10 μg/ml CDDP): 1.63
- SRB Average ([2]; PC3 Run 2, 72 h, 100 μg/ml CDDP): 1.271
- SRB Average ([2]; PC3 Run 3, 24 h, 0.1 μg/ml CDDP): 1.595
- SRB Average ([2]; PC3 Run 3, 24 h, 1 μg/ml CDDP): 1.326
- SRB Average ([2]; PC3 Run 3, 24 h, 10 μg/ml CDDP): 1.24
- SRB Average ([2]; PC3 Run 3, 24 h, 100 μg/ml CDDP): 1.125
- SRB Average ([2]; PC3 Run 3, 48 h, 0.1 μg/ml CDDP): 1.52
- SRB Average ([2]; PC3 Run 3, 48 h, 1 μg/ml CDDP): 1.1
- SRB Average ([2]; PC3 Run 3, 48 h, 10 μg/ml CDDP): 1.474
- SRB Average ([2]; PC3 Run 3, 48 h, 100 μg/ml CDDP): 1.153
- SRB Average ([2]; PC3 Run 3, 72 h, 0.1 μg/ml CDDP): 1.643
- SRB Average ([2]; PC3 Run 3, 72 h, 1 μg/ml CDDP): 1.069
- SRB Average ([2]; PC3 Run 3, 72 h, 10 μg/ml CDDP): 1.122
- SRB Average ([2]; PC3 Run 3, 72 h, 100 μg/ml CDDP): 0.839
